Reference: PubChem BioAssay (NCI)
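The concentration for 50% growth inhibition is given as GI50. TGI: concentration producing complete growth inhibition.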

What was measured:
Assay in all cases: inhibition of tumour cell growth, NCI panel, 384-well format
ACHN renal = test system: ACHN renal
SW-620 colon = test system: SW-620 colon
RPMI-8226 leukemia = test system: RPMI-8226 leukemia
IGROV1 ovarian = test system: IGROV1 ovarian
HS 578T breast = test system: HS 578T breast
NCI-H226 lung = test system: NCI-H226 lung
M14 melanoma = test system: M14 melanoma
U251 glioblastoma = test system: U251 glioblastoma
A498 renal = test system: A498 renal
786-0 renal = test system: 786-0 renal
MDA-MB-468 breast = test system: MDA-MB-468 breast
COLO 205 colon = test system: COLO 205 colon
SK-MEL-5 melanoma = test system: SK-MEL-5 melanoma

SMILES	GI50 (ACHN renal) [nM]	TGI (ACHN renal) [nM]	GI50 (SW-620 colon) [nM]	TGI (SW-620 colon) [nM]	GI50 (RPMI-8226 leukemia) [nM]	TGI (RPMI-8226 leukemia) [nM]	GI50 (IGROV1 ovarian) [nM]	TGI (IGROV1 ovarian) [nM]	GI50 (HS 578T breast) [nM]	TGI (HS 578T breast) [nM]	GI50 (NCI-H226 lung) [nM]	TGI (NCI-H226 lung) [nM]	GI50 (M14 melanoma) [nM]	TGI (M14 melanoma) [nM]	GI50 (U251 glioblastoma) [nM]	TGI (U251 glioblastoma) [nM]	GI50 (A498 renal) [nM]	TGI (A498 renal) [nM]	GI50 (786-0 renal) [nM]	TGI (786-0 renal) [nM]	other results
CS(=O)(=O)N1CCN(Cc2cc3nc(-c4cccc5[nH]ncc45)nc(N4CCOCC4)c3s2)CC1	460	6920	2420	> 100000	393	1670	38.6	215	295	2150	648	4900	916	> 100000	2340	> 100000	290	1590	492	2770	GI50 (MDA-MB-468 breast): 127 nM; TGI (MDA-MB-468 breast): 685 nM; GI50 (COLO 205 colon): 480 nM; TGI (COLO 205 colon): 34200 nM; GI50 (SK-MEL-5 melanoma): 795 nM; TGI (SK-MEL-5 melanoma): 8530 nM
O=C(CCCCCCC(=O)N/N=C/c1ccc(N(c2ccccc2)c2ccccc2)cc1)NO	1790	3590	1420	2790	260	574	413	1460	2110	4370	187	365	2700	7060	1610	3070	146	283	1840	3820	GI50 (MDA-MB-468 breast): 137 nM; TGI (MDA-MB-468 breast): 277 nM; GI50 (COLO 205 colon): 2120 nM; TGI (COLO 205 colon): 3850 nM; GI50 (SK-MEL-5 melanoma): 1630 nM; TGI (SK-MEL-5 melanoma): 3100 nM
